Values quoted from earlier work, collected in US20050031668A1, “Implantable polymeric device for sustained release of nalmefene” (priority 2003, published 2005).

Legend:
[1] = not given; remark: listed apart in the source
[2] = in vivo
[3] = not given; remark: listed apart in the source
[4] = system: μ, δ, and κ receptors
[5] = in vivo; remark: listed apart in the source

SMILES	nausea (20 or 80 mg/day orally)	serious adverse events (20 or 80 mg/day orally)	proportion of nalmefene patients who relapsed (20 or 80 mg/day orally, twelve weeks)	relapse to heavy drinking versus placebo (20 or 80 mg/day orally, twelve-week study, 105 alcoholic patients)	number of abstinent days and self-reported craving (treated versus control groups)	rate of relapse compared with placebo or 10 mg nalmefene ([1]; 40 mg oral, 21 alcohol-dependent patients)	number of drinks per drinking day ([1]; 40 and 10 mg doses)	efficacy in animal models of alcoholism [2]	half-life ([3]; compared with naltrexone)	serious adverse effects ([3]; in vivo)	agonist activity [4]	opioid receptors acted on [4]	limitations of use: hepatotoxicity [5]	limitations of use: nausea [5]
C=C1CC[C@@]2(O)[C@H]3Cc4ccc(O)c5c4[C@@]2(CCN3CC2CC2)[C@H]1O5 [nalmefene]	Transient nausea	no serious adverse events occurred	One-third	Fewer patients receiving nalmefene relapsed to heavy drinking	the same in treated and control groups	significantly lower rate of relapse	significantly decreased	effective	longer half-life	no serious adverse effects	no agonist activity	acts on μ, δ, and κ receptors	–	–
O=C1CC[C@@]2(O)[C@H]3Cc4ccc(O)c5c4[C@@]2(CCN3CC2CC2)[C@H]1O5 [naltrexone]	–	–	–	–	–	–	–	–	–	–	–	primarily blocks μ receptors	dose-dependent hepatotoxic side effects	intolerable nausea
